The text below walks through data of ChEMBL document CHEMBL1201862, “PubChem BioAssay data set” (2004).

Calls of active or inactive are those of the source.

In test [1] the test system is Streptococcus sp. 'group A'. Kind of test: growth inhibition of control SK(-) GAS strain, dose response, counter-screen for streptokinase expression inhibitor project, luminescence, kanamycin, BacTiterGlo, confirmation (AID 1900). Type of test: functional, organism-based.
The target of a further test is T1, Streptokinase A (Streptococcus pyogenes serotype M1, UniProt P10520).
T1 sequence (P10520 whole entry): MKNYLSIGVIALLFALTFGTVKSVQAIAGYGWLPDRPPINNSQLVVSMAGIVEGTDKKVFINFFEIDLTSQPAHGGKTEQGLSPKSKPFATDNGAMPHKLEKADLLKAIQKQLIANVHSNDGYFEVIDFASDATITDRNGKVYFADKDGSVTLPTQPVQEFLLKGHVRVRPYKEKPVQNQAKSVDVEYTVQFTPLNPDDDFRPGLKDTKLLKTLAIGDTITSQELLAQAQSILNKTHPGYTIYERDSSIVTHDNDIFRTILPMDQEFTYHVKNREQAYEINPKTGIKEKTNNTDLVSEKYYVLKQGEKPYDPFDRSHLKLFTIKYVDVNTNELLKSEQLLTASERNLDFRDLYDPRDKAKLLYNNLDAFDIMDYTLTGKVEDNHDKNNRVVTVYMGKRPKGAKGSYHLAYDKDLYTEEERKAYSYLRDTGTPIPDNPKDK
In words: S. pyogenes streptokinase expression inhibitors, potency, dose response, plasminogen activation absorbance, OD405 (AID 1914).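 Note: secreted streptokinase activity via plasminogen activation per viability signal from cell pellet.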 Type of test: functional, Streptococcus pyogenes M1 GAS.

Test [2] is described as follows: microbe, parasite or virus in culture. Format: functional. As to conditions: Mycobacterium tuberculosis.
Test [3] can be described thus: growth suppression of PTEN-null colon cells, dose response, cell-based, HCT116 PTEN knockout (AID 1047).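 Note: HCT116 colon tumor cells with PTEN knocked out; cells exposed to compound for 60 hours before readout; potency for loss of cell viability measured by luminescence.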 Format: functional.
Test [4] is described as follows: growth suppression of beta-catenin-knockout colon cells, dose response, cell-based, HCT116, human colon tumor (AID 1045).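 Note: HCT116 colon tumor cells with beta catenin knocked out; cells exposed to compound for 60 hours.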 Type of test: functional.
For the next test, the system named is Streptococcus. In words: Group A Streptococcus viability loss, dose response, counter-screen for streptokinase expression inhibitor project, luminescence, BacTiterGlo (AID 1915).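 Note: potency for reduction of bacterial viability or growth.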 Type of test: functional, organism-based.
In test [5] the target is Disintegrin and metalloproteinase domain-containing protein 17 (Homo sapiens, UniProt P78536). Kind of test: ADAM17 protease inhibitors, dose response, counter-screen for ADAM10 exosite inhibitor project, biochemical, quenched FRET substrate (AID 743253).
Test [6] can be described thus: TRPM1 promoter luciferase reporter signal decrease, dose response, MITF inhibitor project, cell-based, SK-MEL-5, dry powder, set 9 (AID 651588). Format: functional.
Test [7] can be described thus: A375 melanoma cell viability loss, dose response, counter-screen for MITF inhibitor project, CellTiter-Glo luminescence, dry powder, set 4 (AID 624364).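 Note: A375 melanoma cells are MITF independent so this is a counter screen.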 Format: functional, cell-based. As to conditions: A-375.
A short description of test [8]: A375 melanoma cell cytotoxicity, dose response, counter-screen for MITF inhibitor project, CellTiter-Glo luminescence, dry powder, set 7 (AID 624490). Type of test: functional, cell-based. As to conditions: A-375.
The nature of test [9]: MITF Orthogonal Assay: MALME3 CTG Assay Measured in Cell-Based System Using Plate Reader - 2084-04_Inhibitor_Dose_DryPowder_Activity_Set6. Type of test: functional. As to conditions: MALME-3.
Test [10] can be described thus: SK-MEL-5 parental cell viability reduction, dose response, orthogonal assay for MITF inhibitor project, CellTiter-Glo luminescence, dry powder, set 8 (AID 651586). Type of test: functional, cell-based.
Test [11] in a line: MALME3 melanoma cell viability reduction, dose response, orthogonal assay for MITF inhibitor project, CellTiter-Glo luminescence, dry powder, set 5 (AID 651584). Format: functional, cell-based. As to conditions: MALME-3.
The nature of test [12]: SK-MEL-5 parental line viability, dose response, MITF inhibitor project, cell-based, CellTiter-Glo, dry powder, set 6 (AID 624429). Type of test: functional.
Test [13] in a line: MITF Orthogonal Assay: SK-MEL-5 CTG Assay Measured in Cell-Based System Using Plate Reader - 2084-02_Inhibitor_Dose_DryPowder_Activity_Set5. Format: functional.
Test [14] in a line: A375 melanoma cell cytotoxicity, dose response, counter-screen for MITF inhibitor project, CellTiter-Glo luminescence, dry powder, set 6 (AID 624488). Format: functional, cell-based. As to conditions: A-375.
Test [15] in a line: A375 melanoma cell viability loss, dose response, counter-screen for MITF modulator project, CellTiter-Glo luminescence, dry powder, set 9 (AID 651591). Format: functional, cell-based. As to conditions: A-375.
Test [16] can be described thus: MITF Measured in Cell-Based System Using Plate Reader - 2084-01_Inhibitor_Dose_DryPowder_Activity_Set6. Format: functional.
Test [17] is described as follows: A375 melanoma cell cytotoxicity, dose response, counter-screen for MITF inhibitor project, CellTiter-Glo luminescence, dry powder, set 2 (AID 624489).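 Note: actives are compounds lowering A375 viability meaning general cytotoxicity.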 Type of test: functional, cell-based. As to conditions: A-375.
Test [18] is described as follows: MITF Measured in Cell-Based System Using Plate Reader - 2084-01_Inhibitor_Dose_DryPowder_Activity_Set7. Format: functional.
Test [19] in a line: cytotoxicity in primary human melanocytes, dose response, cytotoxicity control, cell-based, plate reader, dry powder (AID 651920). Type of test: functional.
Test [20] is described as follows: HEK293T cell cytotoxicity, dose response, cytotoxicity control, CellTiter-Glo luminescence, dry powder, set 2 (AID 720595). Type of test: functional, cell-based. As to conditions: HEK293.
Test [21] relates to HEK293. Kind of test: HEK293T cell cytotoxicity, dose response, cytotoxicity control, ATP luminescence, cherry-pick samples (AID 687005).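 Note: cells exposed to compound for 48 hours.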 Type of test: functional, cell-based. To be noted: Homo sapiens.
The nature of test [22]: HEK293 Cytotoxicity Assay Measured in Cell-Based System Using Plate Reader - 7071-01_Inhibitor_Dose_CherryPick_Activity_Set2. Format: functional.
Test [23] has as its system HEK293. Kind of test: NOD1 signaling inhibitors, primary screen, cell-based, luminescence, uHTS (AID 1578). Type of test: functional. As to conditions: Homo sapiens.
Test [24] in a line: insulin promoter down-regulators in MIN6 cells, imaging, high-content screening, mouse beta cells (AID 1628). Format: functional.
In test [25] the test system is HEK293. Kind of test: cells. To be noted: Homo sapiens. Type of test: functional, cell-based.
Test [26] in a line: cytotoxicity in MIN6 insulinoma cells, dose response, cytotoxicity control, cell-based, mouse insulinoma (AID 2122).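 Note: confirmatory high-throughput counterscreen run to flag cytotoxic compounds; mouse MIN-6 beta cells carrying an insulin promoter eGFP reporter.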 Type of test: functional.
Test [27] relates to HEK293. In words: cells. Format: functional, cell-based. To be noted: Homo sapiens. This is another data set of the same source.
For test [28], the system named is HEK293. In words: NOD2 signaling inhibitors in MDP-stimulated cells, cell-based, uHTS, luminescence (AID 2001). Format: functional. As to conditions: Homo sapiens.
In a further test the test system is INS1. Kind of test: beta cell apoptosis inhibitors, cytokine rescue, dose response, luminescence, retest (AID 449756).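 Note: cell death triggered by IL-1 beta plus TNF-alpha plus IFN-gamma mixture; protective hits raise ATP signal compared with cytokine alone wells.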 Format: functional, cell-based. As to conditions: Rattus norvegicus.
Test [29] is described as follows: Shn3 3'UTR reporter inhibitors, dose response, cell-based, Clone20 osteoblasts, firefly luciferase, cherry-picked (AID 624132).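 Note: firefly luciferase luminescence from reporter carrying the Shn3 3'UTR in osteoblasts.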 Format: functional.
Test [30] is described as follows: HepG2 cell cytotoxicity, dose response, cytotoxicity control for Shn3 inhibitor project, CellTiter-Glo, cherry-picked (AID 624134). Type of test: functional, cell-based.
Test [31] can be described thus: control 3'UTR Renilla luciferase suppression, dose response, counter-screen for Shn3 inhibitor project, cell-based, Clone20-Shn3RL, cherry-picked (AID 624133). Format: functional.
The nature of test [32]: reduction of Shn3 3'UTR firefly luciferase signal, dose response, Schnurri-3 inhibitor project, cell-based, Clone20 osteoblasts, cherry-pick, set 2 (AID 720490).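 Note: actives lower the luminescence signal as inhibitors.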 Type of test: functional.
Test [33] addresses NAD-dependent protein deacylase sirtuin-5, mitochondrial (Homo sapiens, UniProt Q9NXA8). Kind of test: SIRT5 desuccinylase inhibitors, dose response, biochemical, fluorescence imaging, cherry-pick, set 5 (AID 720591).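 Note: desuccinylation of succinyl peptide AMC substrate read as fluorescence after trypsin release; potency of inhibitors that lower fluorescence and may act on trypsin instead.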
For the next test, the target named is Paired box protein Pax-8 (Homo sapiens, UniProt Q06710). Kind of test: inhibitors of PAX8-driven TPO luciferase reporter, dose response, RMG-I cells, cherry-pick (AID 687027).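 Note: luciferase reporter driven by Pax8 target thyroperoxidase promoter measured by SteadyGlo luminescence.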 Type of test: functional, cell-based.
A short description of test [34]: A2780 ovarian cancer cell cytotoxicity, dose response, cytotoxicity control, plate reader, dry powder samples (AID 743046). Format: functional, cell-based.
Test [35] in a line: NIH:OVCAR-3 ovarian cancer cell cytotoxicity, dose response, PAX8 inhibitor project, plate reader, dry powder samples (AID 743044). Type of test: functional, cell-based.
Test [36] can be described thus: IGROV1 ovarian cancer cell cytotoxicity, dose response, PAX8 inhibitor project, plate reader, dry powder samples (AID 743043). To be noted: IGROV-1. Format: functional, cell-based.
Test [37] can be described thus: cytotoxicity in OVCAR8 ovarian cancer cells, dose response, PAX8 project, cell-based, plate reader, dry powder samples (AID 743197). Type of test: functional. To be noted: OVCAR-8.

Sequence of NAD-dependent protein deacylase sirtuin-5, mitochondrial (Q9NXA8 whole entry): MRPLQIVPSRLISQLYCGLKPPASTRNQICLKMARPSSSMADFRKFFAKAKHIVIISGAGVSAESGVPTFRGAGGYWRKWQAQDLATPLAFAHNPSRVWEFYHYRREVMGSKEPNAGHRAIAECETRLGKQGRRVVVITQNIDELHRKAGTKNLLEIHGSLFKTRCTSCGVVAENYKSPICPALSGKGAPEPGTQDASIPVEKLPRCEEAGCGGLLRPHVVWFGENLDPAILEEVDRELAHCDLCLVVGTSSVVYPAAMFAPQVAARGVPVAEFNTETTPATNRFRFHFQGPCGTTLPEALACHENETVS
Sequence of Disintegrin and metalloproteinase domain-containing protein 17 (P78536 whole entry, the tested form may be a part): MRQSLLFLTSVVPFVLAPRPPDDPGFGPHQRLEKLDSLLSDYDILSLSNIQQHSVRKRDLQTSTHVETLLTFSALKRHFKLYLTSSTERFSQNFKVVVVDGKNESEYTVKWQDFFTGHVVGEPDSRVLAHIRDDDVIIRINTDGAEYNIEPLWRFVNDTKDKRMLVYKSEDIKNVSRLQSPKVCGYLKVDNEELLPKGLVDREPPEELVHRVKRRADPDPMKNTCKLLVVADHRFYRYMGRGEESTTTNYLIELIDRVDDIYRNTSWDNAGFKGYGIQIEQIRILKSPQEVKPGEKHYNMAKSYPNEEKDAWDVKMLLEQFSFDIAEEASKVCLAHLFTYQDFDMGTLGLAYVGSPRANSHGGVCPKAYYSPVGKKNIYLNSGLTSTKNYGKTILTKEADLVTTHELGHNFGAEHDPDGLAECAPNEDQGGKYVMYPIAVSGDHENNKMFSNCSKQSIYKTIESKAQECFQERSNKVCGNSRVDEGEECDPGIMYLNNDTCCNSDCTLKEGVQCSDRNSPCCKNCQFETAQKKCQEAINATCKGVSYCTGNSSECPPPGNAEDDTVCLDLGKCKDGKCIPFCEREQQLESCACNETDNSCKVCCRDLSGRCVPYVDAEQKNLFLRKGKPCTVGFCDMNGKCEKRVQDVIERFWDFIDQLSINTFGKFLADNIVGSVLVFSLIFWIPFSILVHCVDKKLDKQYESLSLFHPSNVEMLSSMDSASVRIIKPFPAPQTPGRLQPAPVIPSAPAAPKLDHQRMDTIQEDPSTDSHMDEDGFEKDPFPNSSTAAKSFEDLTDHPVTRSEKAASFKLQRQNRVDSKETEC
Sequence of Paired box protein Pax-8 (Q06710 whole entry): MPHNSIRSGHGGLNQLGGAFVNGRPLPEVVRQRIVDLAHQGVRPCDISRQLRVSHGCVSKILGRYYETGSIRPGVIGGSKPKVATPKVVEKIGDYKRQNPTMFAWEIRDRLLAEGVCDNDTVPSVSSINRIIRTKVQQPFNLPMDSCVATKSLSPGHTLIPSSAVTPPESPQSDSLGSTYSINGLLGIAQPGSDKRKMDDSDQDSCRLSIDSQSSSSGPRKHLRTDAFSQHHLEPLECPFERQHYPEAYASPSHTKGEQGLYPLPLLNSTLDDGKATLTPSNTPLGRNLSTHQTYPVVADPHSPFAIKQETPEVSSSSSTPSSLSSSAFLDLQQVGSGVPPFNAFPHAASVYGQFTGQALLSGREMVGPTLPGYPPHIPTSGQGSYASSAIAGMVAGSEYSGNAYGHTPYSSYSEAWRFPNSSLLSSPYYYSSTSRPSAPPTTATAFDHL

For the molecule `O=[N+]([O-])c1ccc(-c2nc(-c3cccs3)c(-c3cccs3)[nH]2)cc1`, the half-maximal effective concentration (EC50) in [1] was 11.6 µM (active); at Streptokinase A, 20.1 µM (active); in test [3], 17.1 µM (active); in test [4], 19 µM (active); in the test with Streptococcus, 17.3 µM (active). In addition, the CC50 in [2] was 19.5 µM (active). Further, the IC50 in [5] is > 69.5 µM (inactive).
Consider `NC1=CC(=O)c2ccccc2C1=O`, for which the AC50 in [6] is 12.1 µM (active); in test [7] it was > 70 µM (inactive); in test [8], 45.7 µM (active); in test [9], 9.48 µM (active); in test [10], 8.76 µM (active); in test [11], 9.48 µM (active). The concentration at half-maximal activity (AC50) in [12] was 6.75 µM (active); in [13] it was 5.13 µM (active); in test [14], 56.9 µM (active); in test [15], > 70 µM (inactive); in test [16], 4.14 µM (active); in test [17], 65.7 µM (active). Moreover, the concentration at half-maximal activity (AC50) was 1.28 µM (active) in test [18] and 25.1 µM (active) in [19].
Regarding `CC1CCN(S(=O)(=O)c2ccc(C(=O)Nc3nnc(-c4ccco4)o3)cc2)CC1`, the AC50 in test [20] was > 52 µM (inactive).
In the case of `COc1ccccc1CNC(=O)C[C@@H]1C[C@H]2c3cc(NC(=O)Nc4ccccc4F)ccc3O[C@H]2[C@@H](CO)O1`, the AC50 (with HEK293 [21]; in test [22]) was 26.6 µM (active) each time.
Regarding `O=C(c1cc(COc2ccc3ncccc3c2)on1)N1CCCCCC1`, the EC50 in the test with HEK293 [23] was 1.85 µM (active). Further, the IC50 was 1.86 µM (active) in [24]; 5.76 µM (active) with HEK293 [25]; 1.13 µM (active) in test [26]; > 20 µM (inactive) with HEK293 [27]; 13.2 µM (inactive) with HEK293 [28]. Besides, the concentration at half-maximal activity (AC50) in the test with INS1 was 5.88 µM (active); in test [29] it was 0.703 µM (active); in test [30], 43.6 µM (active); in [31] it was 23.4 µM (active); in test [32] it was 3.57 µM (active).
As for `COc1ccc(NC(=O)c2cccnc2N2CCCC2)cc1`, in test [33], the AC50 is > 30 µM (inactive).
For `O=C1CN(S(=O)(=O)Cc2ccccc2)C[C@@H]2[C@@H](c3ccc(C#CCC4CCCC4)cc3)[C@@H](CO)N12`, the AC50 is 4.58 µM (active) at Paired box protein Pax-8; 11.3 µM (active) in test [34]; 4.22 µM (active) in [35]; 18.8 µM (active) in test [36]; 28.1 µM (active) in [37].
